Laboratory results as given in patent publication US20120302598A1, “IMIDAZOPYRIDINONES” (PFIZER LIMITED, priority 2007, published 2012).
Several values for one entry are separate records, joined by “and”; a condition that tells them apart may be missing. Equal values may be shown once.

Legend:
[1] = molecular target: T1, TLR7 (Homo sapiens, UniProt Q9NYK1); test: PBL/HCV replicon bioassay; format: cell-based; conditions: read-out: EC50 (nM) (n = no. of experiments)
T1 construct: PBL contain as a subpopulation plasmacytoid dendritic cells which are the natural interferon producing cells; endogenous in cells; host or cells: peripheral blood lymphocytes (PBL), containing plasmacytoid dendritic cells
T1 sequence (Q9NYK1 27-1049): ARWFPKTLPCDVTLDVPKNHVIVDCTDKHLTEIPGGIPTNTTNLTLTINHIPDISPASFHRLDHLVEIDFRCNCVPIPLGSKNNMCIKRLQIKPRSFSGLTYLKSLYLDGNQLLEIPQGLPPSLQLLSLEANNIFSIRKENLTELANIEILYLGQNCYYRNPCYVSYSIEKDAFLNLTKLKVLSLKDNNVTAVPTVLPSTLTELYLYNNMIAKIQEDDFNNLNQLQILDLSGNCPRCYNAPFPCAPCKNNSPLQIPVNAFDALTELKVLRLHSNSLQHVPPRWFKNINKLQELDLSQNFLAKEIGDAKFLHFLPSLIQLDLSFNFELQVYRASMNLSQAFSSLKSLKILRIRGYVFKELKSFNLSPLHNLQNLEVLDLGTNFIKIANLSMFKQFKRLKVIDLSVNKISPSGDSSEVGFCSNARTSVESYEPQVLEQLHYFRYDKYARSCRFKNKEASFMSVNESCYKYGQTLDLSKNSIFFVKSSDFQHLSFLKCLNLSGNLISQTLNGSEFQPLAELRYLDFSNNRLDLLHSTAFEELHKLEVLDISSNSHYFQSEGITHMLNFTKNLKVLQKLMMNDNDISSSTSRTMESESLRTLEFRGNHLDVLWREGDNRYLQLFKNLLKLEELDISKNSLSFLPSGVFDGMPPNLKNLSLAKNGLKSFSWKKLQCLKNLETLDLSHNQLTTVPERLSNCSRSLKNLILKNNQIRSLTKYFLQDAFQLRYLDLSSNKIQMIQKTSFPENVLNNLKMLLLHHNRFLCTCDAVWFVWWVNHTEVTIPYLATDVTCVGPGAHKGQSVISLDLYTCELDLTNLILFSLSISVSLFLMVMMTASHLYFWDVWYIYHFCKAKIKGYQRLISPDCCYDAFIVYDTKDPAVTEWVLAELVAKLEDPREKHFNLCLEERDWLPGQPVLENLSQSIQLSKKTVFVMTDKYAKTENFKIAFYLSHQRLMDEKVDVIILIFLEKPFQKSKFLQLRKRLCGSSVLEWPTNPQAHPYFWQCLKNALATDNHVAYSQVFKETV
From the text: EMCV: Encephalomyocarditis virus IRES: Internal ribosmomal entry site Huh: Huh-7 human hepatoma cell line 7 (parental cells used to generate HCV replicon cell lines) IUC: luciferase ubi: ubiquitin neo: neomycin ET: glutamic acid, threonine (cell culture adaptive mutations in the replicon used in the assay) RPMI-FCS: Roswell Park Memorial Institute (cell culture medium for PBL)—Foetal Calf Serum PBL: peripheral blood lymphocytes
PBL contain as a subpopulation plasmacytoid dendritic cells which are the natural interferon producing cells during an infection and as such are an excellent model in which to profile interferon inducers. As an extremely sensitive antiviral bioassay, supernatant taken from PBL is assayed for antiviral activity in the HCV replicon system.
The HCV replicon (Huh-5-2[l389 luc-ubi-neo-NS3-3′/ET]) is an in vitro model of HCV replication in which the luciferase reporter is incorporated into HCV sequences and stably maintained in the human hepatoma cell line Huh-7. The firefly luciferase reporter is expressed as a luciferase-ubiquitin-neomycin phosphotransferase fusion protein which is cleaved by host proteases to release luciferase. […] Firefly luciferase activity is detected using a Bright-Glo™ Luciferase Assay System manufactured by Promega. […]

[2] = test system: HCV replicon containing cells; test: Direct response of HCV replicon containing cells to TLR agonists; format: cell-based, human; conditions: compound applied directly to replicon cells, not via PBL conditioned medium

Row | Structure (SMILES) | EC50 [1] | direct response of HCV replicon containing cells to the TLR agonist [2]
1 | Cc1ccc(Cn2c(=O)[nH]c3c(N)nc(OCC4CCCO4)cc32)cn1 (stereo not drawn) [Example 5, 4-Amino-1-(6-methyl-pyridin-3-ylmethyl)-6-(tetrahydro-furan-2-R/S-ylmethoxy)-1,3-dihydro-imidazo[4,5-c]pyridin-2-one] | 698 nM and 1240 nM and 1160 nM and 3700 nM and 475 nM and 1430 nM and 1040 nM and 583 nM and 1010 nM and 737 nM | 
2 | Cc1ccc(Cn2c(=O)[nH]c3c(N)nc(OC[C@H]4CCCO4)cc32)cn1 [Example 6, 4-Amino-1-(6-methyl-pyridin-3-ylmethyl)-6-(tetrahydro-furan-2-R-ylmethoxy)-1,3-dihydro-imidazo[4,5-c]pyridin-2-one] | > 4000 nM and 1920 nM and 1000 nM and 1450 nM and 1940 nM and 1470 nM and 1250 nM and 1580 nM | 
3 | CC(C)Cn1cnc2c(N)nc3ccccc3c21 [Imiquimod] |  | do not respond directly
